{"source": "patent US6914045B2", "about": "“Glycopeptide antibiotics” (Wyeth Holdings Corporation, priority 2001, dated 2005)", "test_in_all_cases": "in vitro antibacterial evaluation, MIC by broth dilution", "format_in_all_cases": "cell-based", "key": {"Streptococcus sp.": {"test_system": "Streptococcus sp.", "conditions": "broth dilution, 18 hours at 35° C.", "summary_of_the_method": "(§1)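 MIC, the lowest antibiotic concentration preventing growth, was read across 64-0.06 μg/mL with 5×10^5 CFU/mL inoculum. Method followed NCCLS M7-A2 broth dilution using Mueller-Hinton II; Gram-positive strains covered recent methicillin-, penicillin- and/or vancomycin-resistant clinical isolates.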"}, "Enterococcus sp.": {"test_system": "Enterococcus sp.", "conditions": "broth dilution, 18 hours at 35° C.", "summary_of_the_method": "as §1"}, "Escherichia coli": {"test_system": "Escherichia coli", "conditions": "18 hours at 35° C.", "summary_of_the_method": "as §1"}, "Staphylococcus sp.": {"test_system": "Staphylococcus sp.", "conditions": "broth dilution, 18 hours at 35° C.", "summary_of_the_method": "as §1"}}, "data": [{"compound": "CC(c1ccccc1)C1NC(=O)CNC(=O)C(CO)NC(=O)C(C(O)C2CNC(=N)N2C2OC(CO)C(O)C(O)C2O)NC(=O)C(C(O)C2CNC(=N)N2)NC(=O)C(Cc2ccc(OC3OC(CO)C(OC4OC5COC(CC6CCCCC6)OC5C(O)C4O)C(O)C3O)cc2)NC1=O", "note": "(stereo not shown) [Example 122]", "values": [{"measurement": "MIC Streptococcus agalactiae (GC 4564)", "setting": "Streptococcus sp.; Streptococcus agalactiae (GC 4564)", "result": 0.12, "unit": "µg/mL"}, {"measurement": "MIC Streptococcus pneumoniae (ATCC 6301)", "setting": "Streptococcus sp.; Streptococcus pneumoniae (ATCC 6301)", "result": "<0.06", "unit": "µg/mL"}, {"measurement": "MIC Streptococcus pneumoniae (GC 1894)", "setting": "Streptococcus sp.; Streptococcus pneumoniae (GC 1894)", "result": "<0.06", "unit": "µg/mL"}, {"measurement": "MIC Streptococcus pneumoniae (GC 4565)", "setting": "Streptococcus sp.; Streptococcus pneumoniae (GC 4565)", "result": 0.12, "unit": "µg/mL"}, {"measurement": "MIC Streptococcus pyogenes (GC 4563)", "setting": "Streptococcus sp.; Streptococcus pyogenes (GC 4563)", "result": "<0.06", "unit": "µg/mL"}, {"measurement": "MIC Streptococcus pneumoniae (ATCC 6301)", "setting": "Streptococcus sp.; strain ATCC 6301", "result": "<0.06", "unit": "µg/mL"}, {"measurement": "MIC Streptococcus pneumoniae (GC 1894)", "setting": "Streptococcus sp.; strain GC 1894", "result": "<0.06", "unit": "µg/mL"}, {"measurement": "MIC Streptococcus pyogenes (GC 4563)", "setting": "Streptococcus sp.; strain GC 4563", "result": "<0.06", "unit": "µg/mL"}, {"measurement": "MIC Streptococcus agalactiae (GC 4564)", "setting": "Streptococcus sp.; strain GC 4564", "result": 0.12, "unit": "µg/mL"}, {"measurement": "MIC Streptococcus pneumoniae (GC 4565)", "setting": "Streptococcus sp.; strain GC 4565", "result": 0.12, "unit": "µg/mL"}, {"measurement": "MIC Enterococcus avium (GC 4558)", "setting": "Enterococcus sp.; Enterococcus avium (GC 4558)", "result": 2, "unit": "µg/mL"}, {"measurement": "MIC Enterococcus faecalis (ATCC 29212)", "setting": "Enterococcus sp.; Enterococcus faecalis (ATCC 29212)", "result": 2, "unit": "µg/mL"}, {"measurement": "MIC Enterococcus faecalis (GC 2242)", "setting": "Enterococcus sp.; Enterococcus faecalis (GC 2242)", "result": 2, "unit": "µg/mL"}, {"measurement": "MIC Enterococcus faecalis (GC 2691)", "setting": "Enterococcus sp.; Enterococcus faecalis (GC 2691)", "result": 2, "unit": "µg/mL"}, {"measurement": "MIC Enterococcus faecalis (GC 3059)", "setting": "Enterococcus sp.; Enterococcus faecalis (GC 3059)", "result": 2, "unit": "µg/mL"}, {"measurement": "MIC Enterococcus faecalis (GC 4552)", "setting": "Enterococcus sp.; Enterococcus faecalis (GC 4552)", "result": 2, "unit": "µg/mL"}, {"measurement": "MIC Enterococcus faecalis (GC 4553)", "setting": "Enterococcus sp.; Enterococcus faecalis (GC 4553)", "result": 4, "unit": "µg/mL"}, {"measurement": "MIC Enterococcus faecalis (GC 4554)", "setting": "Enterococcus sp.; Enterococcus faecalis (GC 4554)", "result": 2, "unit": "µg/mL"}, {"measurement": "MIC Enterococcus faecalis (GC 6189)", "setting": "Enterococcus sp.; Enterococcus faecalis (GC 6189)", "result": 2, "unit": "µg/mL"}, {"measurement": "MIC Enterococcus faecium (GC 2243)", "setting": "Enterococcus sp.; Enterococcus faecium (GC 2243)", "result": 2, "unit": "µg/mL"}, {"measurement": "MIC Enterococcus faecium (GC 4556)", "setting": "Enterococcus sp.; Enterococcus faecium (GC 4556)", "result": 2, "unit": "µg/mL"}, {"measurement": "MIC Enterococcus faecium (GC 4557)", "setting": "Enterococcus sp.; Enterococcus faecium (GC 4557)", "result": 4, "unit": "µg/mL"}, {"measurement": "MIC Enterococcus faecalis (ATCC 29212)", "setting": "Enterococcus sp.; strain ATCC 29212", "result": 2, "unit": "µg/mL"}, {"measurement": "MIC Enterococcus faecalis (GC 2242)", "setting": "Enterococcus sp.; strain GC 2242", "result": 2, "unit": "µg/mL"}, {"measurement": "MIC Enterococcus faecium (GC 2243)", "setting": "Enterococcus sp.; strain GC 2243", "result": 2, "unit": "µg/mL"}, {"measurement": "MIC Enterococcus faecalis (GC 2691)", "setting": "Enterococcus sp.; strain GC 2691", "result": 2, "unit": "µg/mL"}, {"measurement": "MIC Enterococcus faecalis (GC 3059)", "setting": "Enterococcus sp.; strain GC 3059", "result": 2, "unit": "µg/mL"}, {"measurement": "MIC Enterococcus faecalis (GC 4552)", "setting": "Enterococcus sp.; strain GC 4552", "result": 2, "unit": "µg/mL"}, {"measurement": "MIC Enterococcus faecalis (GC 4553)", "setting": "Enterococcus sp.; strain GC 4553", "result": 4, "unit": "µg/mL"}, {"measurement": "MIC Enterococcus faecalis (GC 4554)", "setting": "Enterococcus sp.; strain GC 4554", "result": 2, "unit": "µg/mL"}, {"measurement": "MIC Enterococcus faecium (GC 4556)", "setting": "Enterococcus sp.; strain GC 4556", "result": 2, "unit": "µg/mL"}, {"measurement": "MIC Enterococcus faecium (GC 4557)", "setting": "Enterococcus sp.; strain GC 4557", "result": 4, "unit": "µg/mL"}, {"measurement": "MIC Enterococcus avium (GC 4558)", "setting": "Enterococcus sp.; strain GC 4558", "result": 2, "unit": "µg/mL"}, {"measurement": "MIC Enterococcus faecalis (GC 6189)", "setting": "Enterococcus sp.; strain GC 6189", "result": 2, "unit": "µg/mL"}, {"measurement": "MIC Escherichia coli (ATCC 25922)", "setting": "Escherichia coli; strain ATCC 25922", "result": 32, "unit": "µg/mL"}, {"measurement": "MIC Escherichia coli (GC 4559)", "setting": "Escherichia coli; strain GC 4559", "result": 32, "unit": "µg/mL"}, {"measurement": "MIC Escherichia coli (GC 4560)", "setting": "Escherichia coli; strain GC 4560", "result": 2, "unit": "µg/mL"}, {"measurement": "MIC Staphylococcus aureus (ATCC 29213)", "setting": "Staphylococcus sp.", "result": 2, "unit": "µg/mL"}, {"measurement": "MIC Staphylococcus aureus (GC 1131)", "setting": "Staphylococcus sp.", "result": 2, "unit": "µg/mL"}, {"measurement": "MIC Staphylococcus aureus (GC 3051)", "setting": "Staphylococcus sp.", "result": 2, "unit": "µg/mL"}, {"measurement": "MIC Staphylococcus aureus (GC 3053)", "setting": "Staphylococcus sp.", "result": 2, "unit": "µg/mL"}, {"measurement": "MIC Staphylococcus aureus (GC 4541)", "setting": "Staphylococcus sp.", "result": 2, "unit": "µg/mL"}, {"measurement": "MIC Staphylococcus aureus (GC 4542)", "setting": "Staphylococcus sp.", "result": 2, "unit": "µg/mL"}, {"measurement": "MIC Staphylococcus aureus (GC 4544)", "setting": "Staphylococcus sp.", "result": 1, "unit": "µg/mL"}, {"measurement": "MIC Staphylococcus aureus (GC 4545)", "setting": "Staphylococcus sp.", "result": 2, "unit": "µg/mL"}, {"measurement": "MIC Staphylococcus aureus (GC 1131)", "setting": "Staphylococcus sp.; inoculum 5×10^5 CFU/mL, strain GC 1131", "result": 2, "unit": "µg/mL"}, {"measurement": "MIC Staphylococcus aureus (ATCC 29213)", "setting": "Staphylococcus sp.; strain ATCC 29213", "result": 2, "unit": "µg/mL"}, {"measurement": "MIC Staphylococcus aureus (GC 3051)", "setting": "Staphylococcus sp.; strain GC 3051", "result": 2, "unit": "µg/mL"}, {"measurement": "MIC Staphylococcus aureus (GC 3053)", "setting": "Staphylococcus sp.; strain GC 3053", "result": 2, "unit": "µg/mL"}, {"measurement": "MIC Staphylococcus aureus (GC 4541)", "setting": "Staphylococcus sp.; strain GC 4541", "result": 2, "unit": "µg/mL"}, {"measurement": "MIC Staphylococcus aureus (GC 4542)", "setting": "Staphylococcus sp.; strain GC 4542", "result": 2, "unit": "µg/mL"}, {"measurement": "MIC Staphylococcus aureus-SMITH (GC 4543)", "setting": "Staphylococcus sp.; strain GC 4543", "result": 2, "unit": "µg/mL"}, {"measurement": "MIC Staphylococcus aureus (GC 4544)", "setting": "Staphylococcus sp.; strain GC 4544", "result": 1, "unit": "µg/mL"}, {"measurement": "MIC Staphylococcus aureus (GC 4545)", "setting": "Staphylococcus sp.; strain GC 4545", "result": 2, "unit": "µg/mL"}, {"measurement": "MIC Staphylococcus haemolyticus (GC 4546)", "setting": "Staphylococcus sp.; strain GC 4546", "result": 2, "unit": "µg/mL"}, {"measurement": "MIC Coagulase Negative Staphylococcus (GC 4547)", "setting": "Staphylococcus sp.; strain GC 4547", "result": 2, "unit": "µg/mL"}, {"measurement": "MIC Coagulase Negative Staphylococcus (GC 4548)", "setting": "Staphylococcus sp.; strain GC 4548", "result": 1, "unit": "µg/mL"}, {"measurement": "MIC Coagulase Negative Staphylococcus (GC 4549)", "setting": "Staphylococcus sp.; strain GC 4549", "result": 1, "unit": "µg/mL"}, {"measurement": "MIC Coagulase Negative Staphylococcus (GC 4551)", "setting": "Staphylococcus sp.; strain GC 4551", "result": 2, "unit": "µg/mL"}, {"measurement": "MIC Coagulase Negative Staphylococcus (GC 6257)", "setting": "Staphylococcus sp.; strain GC 6257", "result": 1, "unit": "µg/mL"}, {"measurement": "MIC Staphylococcus aureus-SMITH (GC 4543)", "setting": "Staphylococcus sp.; strain SMITH GC 4543", "result": 2, "unit": "µg/mL"}]}]}
